The values below come from ChEMBL document CHEMBL1137934, “Inhibition of monoamine oxidases by coumarin-3-acyl derivatives: biological activity and computational study” (Bioorg Med Chem Lett, 2004).

Assay [1] concerns the target Amine oxidase [flavin-containing] A (Bos taurus) (UniProt P21398).
Assay [2] deals with Amine oxidase [flavin-containing] B (Bos taurus) (UniProt P56560).

Usually IC50 stands for the concentration that gives 50% inhibition. A low value points to greater potency in that assay.

Chain of Amine oxidase [flavin-containing] B (Bos taurus) (P56560 whole entry, looked up): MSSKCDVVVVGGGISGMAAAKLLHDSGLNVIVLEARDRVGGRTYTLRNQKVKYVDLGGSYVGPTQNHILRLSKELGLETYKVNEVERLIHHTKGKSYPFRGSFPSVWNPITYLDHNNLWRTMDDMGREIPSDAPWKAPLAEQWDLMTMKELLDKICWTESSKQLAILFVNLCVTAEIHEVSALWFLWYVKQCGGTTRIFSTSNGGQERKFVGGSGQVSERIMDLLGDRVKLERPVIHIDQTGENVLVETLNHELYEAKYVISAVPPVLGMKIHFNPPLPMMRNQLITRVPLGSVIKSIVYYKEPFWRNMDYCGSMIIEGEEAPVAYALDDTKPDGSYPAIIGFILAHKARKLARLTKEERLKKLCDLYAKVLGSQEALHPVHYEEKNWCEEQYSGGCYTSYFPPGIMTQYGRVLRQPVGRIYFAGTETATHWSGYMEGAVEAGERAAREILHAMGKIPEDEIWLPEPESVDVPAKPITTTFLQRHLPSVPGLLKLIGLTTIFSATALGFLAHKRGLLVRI

As for `CCOC(=O)C1=Cc2cc(Cl)ccc2CC1=O`, the values for the IC50 in assay [1] and in assay [2] were 501 nM and 1000 nM, respectively.
